# Earlier results in patent publication US5240711A, “Transdermal therapeutic system comprising as active component buprenorphine” (LTS Lohmann Therapie-Systeme GmbH & Co. KG, priority 1989, dated 1993).
compound,measurement,setting,value
"CO[C@]12CC[C@@]3(C[C@@H]1[C@](C)(O)C(C)(C)C)[C@H]1Cc4ccc(O)c5c4[C@@]3(CCN1CC1CC1)[C@H]2O5 [buprenorphine, 17-(cyclopropylmethyl)-α-(1,1-dimethylethyl)-4,5-epoxy-18,19-dihydro-3-hydroxy-6-methoxy-α-methyl-6,14-ethenomorphinane-7-methanol]",solubility in conventional organic solvents and water,,very slight solubility
same,penetration through the human skin,human skin,only badly penetrates through the human skin
